The values below come from patent US12454529B2, “Piperazine cyclic ureas” (SIRONAX LTD., priority 2020, dated 2025).

Broadly, the EC50 is the concentration giving half of the maximal effect.

One assay concerns HT-29 cells. The assay is described as follows: HT-29 cell necrosis/necroptosis inhibition (TNF-α + SMAC mimetic + zVAD-FMK; CellTiter-Glo cell viability). To be noted: Homo sapiens, HT-29, 20 h, read-out: EC50 (Cell activity; Necrosis/Necroptosis Inhibitory Activity, Compounds 1-142). In kind it is cell-based. Put shortly: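 HT-29 cells (~5,000/well) were switched to FBS-free McCOY's 5A holding TNF-α (10 ng/ml), SMAC mimetic (6 μM) and zVAD-FMK (10 μM), then dosed with a 10-point 1:3 series for 20 h at 37 °C. CellTiter-Glo luminescence gave viability; geometric mean EC50 from duplicates.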
`Cc1nnnn1-c1ccnc(N2CCN(C(=O)N3N=CC[C@H]3c3cncc(F)c3)CC2)n1` [Compound 26, (S)-(5-(5-fluoropyridin-3-yl)-4,5-dihydro-1H-pyrazol-1-yl)(4-(4-(5-methyl-1H-tetrazol-1-yl)pyrimidin-2-yl)piperazin-1-yl)methanone]: the EC50 lay within 0.1 to 100 nM.

On to `CCOC(=O)c1n[nH]c(C)c1-c1nc(N2CCN(C(=O)N3N=CC[C@H]3c3cc(F)cc(C#N)c3)CC2)ncc1F` [Compound 73, ethyl (S)-4-(2-(4-(5-(3-cyano-5-fluorophenyl)-4,5-dihydro-1H-pyrazole-1-carbonyl)piperazin-1-yl)-5-fluoropyrimidin-4-yl)-5-methyl-1H-pyrazole-3-carboxylat], for which the EC50 lay within 0.1 to 100 nM.

`Cc1nnnn1-c1ccnc(N2CCN(C(=O)N3N=CC[C@H]3c3cncc(C#N)c3)CC2)n1` [Compound 99, (S)-5-(1-(4-(4-(5-methyl-1H-tetrazol-1-yl)pyrimidin-2-yl)piperazine-1-carbonyl)-4,5-dihydro-1H-pyrazol-5-yl)nicotinonitrile]: the EC50 lay in the range of 0.1 to 100 nM.

Staying with this assay, now noted: Homo sapiens; HT-29 cells, TNF-α 10 ng/ml + SMAC mimetic 6 μM + zVAD-FMK 10 μM, 20 hours; geometric mean, 10 points in duplicate; read-out: EC50 (Cell activity; Necrosis/Necroptosis Inhibitory Activity, Compounds 1-142).
On to `Cc1nnc(-c2nc(N3CCN(C(=O)N4N=CC[C@H]4c4cc(F)cc(F)c4)CC3)ncc2F)s1` [Compound 63, (S)-(5-(3,5-difluorophenyl)-4,5-dihydro-1H-pyrazol-1-yl)(4-(5-fluoro-4-(5-methyl-1,3,4-thiadiazol-2-yl)pyrimidin-2-yl)piperazin-1-yl)methanone], for which the EC50 lay in the range of 0.1 to 100 nM.

For `Cc1nc(C)n(-c2ncnc(N3CCN(C(=O)N4N=CC[C@H]4c4cc(F)cc(C#N)c4)CC3)n2)n1` [Compound 130, (S)-3-(1-(4-(4-(3,5-dimethyl-1H-1,2,4-triazol-1-yl)-1,3,5-triazin-2-yl)piperazine-1-carbonyl)-4,5-dihydro-1H-pyrazol-5-yl)-5-fluorobenzonitrile], the EC50 lay in the range of 0.1 to 100 nM.

`Cn1ccc(-c2nc(N3CCN(C(=O)N4N=CC[C@H]4c4cc(F)cc(F)c4)CC3)ncc2F)n1` [Compound 27, (S)-(5-(3,5-difluorophenyl)-4,5-dihydro-1H-pyrazol-1-yl)(4-(5-fluoro-4-(1-methyl-1H-pyrazol-3-yl)pyrimidin-2-yl)piperazin-1-yl)methanone]: the EC50 is 0.1 to 100 nM.

For the compound `N#Cc1cc(F)cc([C@@H]2CC=NN2C(=O)N2CCN(c3ncc(F)c(-c4cc[nH]n4)n3)CC2)c1` [Compound 22, (S)-3-fluoro-5-(1-(4-(5-fluoro-4-(1H-pyrazol-3-yl)pyrimidin-2-yl)piperazine-1-carbonyl)-4,5-dihydro-1H-pyrazol-5-yl)benzonitrile], the EC50 is 0.1 to 100 nM.

Turning to `Cc1nn(-c2nc(N3CCN(C(=O)N4N=CC[C@H]4c4cc(F)cc(F)c4)CC3)ncc2F)c(=O)n1C` [Compound 95, (S)-2-(2-(4-(5-(3,5-difluorophenyl)-4,5-dihydro-1H-pyrazole-1-carbonyl)piperazin-1-yl)-5-fluoropyrimidin-4-yl)-4,5-dimethyl-2,4-dihydro-3H-1,2,4-triazol-3-one], the EC50 was in the range of 0.1 to 100 nM.

As to `N#Cc1cc(F)cc([C@@H]2CC=NN2C(=O)N2CCN(c3ncc(F)c(-c4ccc(O)nc4)n3)CC2)c1` [Compound 48, (S)-3-fluoro-5-(1-(4-(5-fluoro-4-(6-hydroxypyridin-3-yl)pyrimidin-2-yl)piperazine-1-carbonyl)-4,5-dihydro-1H-pyrazol-5-yl)benzonitrile], the EC50 lay within 0.1 to 100 nM.

Regarding `Cc1cn(-c2nc(N3CCN(C(=O)N4N=CC[C@H]4c4cc(F)cc(C#N)c4)CC3)ncc2F)c(C#N)n1` [Compound 16, (S)-1-(2-(4-(5-(3-cyano-5-fluorophenyl)-4,5-dihydro-1H-pyrazole-1-carbonyl)piperazin-1-yl)-5-fluoropyrimidin-4-yl)-4-methyl-1H-imidazole-2-carbonitrile], the EC50 fell in the range of 0.1 to 100 nM.

Take `O=C(N1CCN(c2ncc(F)c(-c3cnn[nH]3)n2)CC1)N1N=CC[C@H]1c1cc(F)cc(F)c1` [Compound 8, (S)-(5-(3,5-difluorophenyl)-4,5-dihydro-1H-pyrazol-1-yl)(4-(5-fluoro-4-(1H-1,2,3-triazol-5-yl)pyrimidin-2-yl)piperazin-1-yl)methanone]: the EC50 lay in the range of 0.1 to 100 nM.

The assay is the same for the next values; noted with them: Homo sapiens; HT-29 cells, TNF-α 10 ng/ml + SMAC mimetic 6 μM + zVAD-FMK 10 μM, 20 hours; geometric mean, 10 points in duplicate; read-out: EC50 (Cell activity; Necrosis/Necroptosis Inhibitory Activity, Compounds 143-323).
In the case of `Cc1nc(C)n(-c2nc(N3CCN(C(=O)N4N=CC[C@H]4c4cncc(F)c4)CC3)ncc2F)n1` [Compound 248, (S)-(4-(4-(3,5-dimethyl-1H-1,2,4-triazol-1-yl)-5-fluoropyrimidin-2-yl)piperazin-1-yl)(5-(5-fluoropyridin-3-yl)-4,5-dihydro-1H-pyrazol-1-yl)methanone], the EC50 was in the range of 0.1 to 100 nM.

As for `Cc1nn(-c2ccnc(N3CCN(C(=O)N4N=CC[C@H]4c4cc(F)cc(C#N)c4)CC3)n2)c(C)c1C#N` [Compound 274, (S)-1-(2-(4-(5-(3-cyano-5-fluorophenyl)-4,5-dihydro-1H-pyrazole-1-carbonyl)piperazin-1-yl)pyrimidin-4-yl)-3,5-dimethyl-1H-pyrazole-4-carbonitrile], the EC50 was in the range of 0.1 to 100 nM.

In the case of `Cc1nc(C)n(-c2nc(N3CCN(C(=O)N4N=CC[C@H]4c4cc(F)cc(F)c4)CC3)c(F)cc2F)n1` [Compound 232, (S)-(5-(3,5-difluorophenyl)-4,5-dihydro-1H-pyrazol-1-yl)(4-(6-(3,5-dimethyl-1H-1,2,4-triazol-1-yl)-3,5-difluoropyridin-2-yl)piperazin-1-yl)methanone], the EC50 was 0.1 to 100 nM.

In the case of `N#Cc1cc(F)cc([C@@H]2CC=NN2C(=O)N2CCN(c3nc(-n4cc(C#N)cn4)ncc3F)CC2)c1` [Compound 219, (S)-1-(4-(4-(5-(3-cyano-5-fluorophenyl)-4,5-dihydro-1H-pyrazole-1-carbonyl)piperazin-1-yl)-5-fluoropyrimidin-2-yl)-1H-pyrazole-4-carbonitrile], the concentration for a half-maximal effect (EC50) was in the range of 0.1 to 100 nM.

With `Cc1cnn(C)c1-c1ncc(F)c(N2CCN(C(=O)N3N=CCC3c3cncs3)CC2)n1` (stereo not shown) [Compound 159, (4-(2-(1,4-dimethyl-1H-pyrazol-5-yl)-5-fluoropyrimidin-4-yl)piperazin-1-yl)(5-(thiazol-5-yl)-4,5-dihydro-1H-pyrazol-1-yl)methanone], the EC50 is 0.1 to 100 nM.

For the compound `Cc1cnn(C)c1-c1ccc(F)c(N2CCN(C(=O)N3N=CCC3c3cccnc3)CC2)n1` (stereo not shown) [Compound 295, (4-(6-(1,4-dimethyl-1H-pyrazol-5-yl)-3-fluoropyridin-2-yl)piperazin-1-yl)(5-(pyridin-3-yl)-4,5-dihydro-1H-pyrazol-1-yl)methanone], the EC50 is 0.1 to 100 nM.

Take `O=C(N1CCN(c2ncc(F)c(-n3nccc3C(F)(F)F)n2)CC1)N1N=CC[C@H]1c1cncc(F)c1` [Compound 308, (S)-(4-(5-fluoro-4-(5-(trifluoromethyl)-1H-pyrazol-1-yl)pyrimidin-2-yl)piperazin-1-yl)(5-(5-fluoropyridin-3-yl)-4,5-dihydro-1H-pyrazol-1-yl)methanone]: the EC50 fell in the range of 0.1 to 100 nM.

On to `Cc1nn(-c2cc(N3CCN(C(=O)N4N=CC[C@H]4c4cc(F)cc(F)c4)CC3)ncn2)c(C)c1C(N)=O` [Compound 281, (S)-1-(6-(4-(5-(3,5-difluorophenyl)-4,5-dihydro-1H-pyrazole-1-carbonyl)piperazin-1-yl)pyrimidin-4-yl)-3,5-dimethyl-1H-pyrazole-4-carboxamide], for which the EC50 lay in the range of 0.1 to 100 nM.

Turning to `CCn1cnn(-c2nc(N3CCN(C(=O)N4N=CC[C@H]4c4cc(F)cc(F)c4)CC3)ncc2F)c1=O` [Compound 199, (S)-2-(2-(4-(5-(3,5-difluorophenyl)-4,5-dihydro-1H-pyrazole-1-carbonyl)piperazin-1-yl)-5-fluoropyrimidin-4-yl)-4-ethyl-2,4-dihydro-3H-1,2,4-triazol-3-one], the EC50 lay in the range of 0.1 to 100 nM.

For the compound `Cn1nc(CO)nc1-c1ccnc(N2CCN(C(=O)N3N=CC[C@H]3c3cc(F)cc(C#N)c3)CC2)n1` [Compound 171, (S)-3-fluoro-5-(1-(4-(4-(3-(hydroxymethyl)-1-methyl-1H-1,2,4-triazol-5-yl)pyrimidin-2-yl)piperazine-1-carbonyl)-4,5-dihydro-1H-pyrazol-5-yl)benzonitrile], the EC50 was 0.1 to 100 nM.

As for `Cc1nc(C(F)(F)F)nn1-c1nc(N2CCN(C(=O)N3N=CC[C@H]3c3cc(F)cc(C#N)c3)CC2)ncc1F` [Compound 207, (S)-3-fluoro-5-(1-(4-(5-fluoro-4-(5-methyl-3-(trifluoromethyl)-1H-1,2,4-triazol-1-yl)pyrimidin-2-yl)piperazine-1-carbonyl)-4,5-dihydro-1H-pyrazol-5-yl)benzonitrile], the EC50 is 0.1 to 100 nM.

For the compound `Cc1nn2c(c1-c1nc(N3CCN(C(=O)N4N=CC[C@H]4c4cc(F)cc(C#N)c4)CC3)ncc1F)CCC2` [Compound 184, (S)-3-fluoro-5-(1-(4-(5-fluoro-4-(2-methyl-5,6-dihydro-4H-pyrrolo[1,2-b]pyrazol-3-yl)pyrimidin-2-yl)piperazine-1-carbonyl)-4,5-dihydro-1H-pyrazol-5-yl)benzonitrile], the EC50 lay within 0.1 to 100 nM.

For the compound `Cc1nn(-c2cc(N3CCN(C(=O)N4N=CC[C@H]4c4cncc(F)c4)CC3)ncn2)c(C)c1C#N` [Compound 286, (S)-1-(6-(4-(5-(5-fluoropyridin-3-yl)-4,5-dihydro-1H-pyrazole-1-carbonyl)piperazin-1-yl)pyrimidin-4-yl)-3,5-dimethyl-1H-pyrazole-4-carbonitrile], the EC50 fell in the range of 0.1 to 100 nM.

For the compound `Cc1nn(-c2nc(N3CCN(C(=O)N4N=CC[C@H]4c4cc(F)cc(C#N)c4)CC3)ncc2F)c(C)c1NC(=O)CC1CC1` [Compound 195, (S)—N-(1-(2-(4-(5-(3-cyano-5-fluorophenyl)-4,5-dihydro-1H-pyrazole-1-carbonyl)piperazin-1-yl)-5-fluoropyrimidin-4-yl)-3,5-dimethyl-1H-pyrazol-4-yl)-2-cyclopropylacetamide], the EC50 fell in the range of 0.1 to 100 nM.
